The results in this text go back to ChEMBL document CHEMBL1201862, “PubChem BioAssay data set” (2004).

In assay [1] the target is G-protein coupled receptor 35 (Homo sapiens, UniProt Q9HC97). Briefly: inhibition of zaprinast-stimulated GPR35 beta-arrestin translocation – imaging, U2OS, beta-arrestin-GFP, zaprinast agonist, primary screen (AID 2058).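 Also: antagonist potency meaning inhibition of agonist-induced arrestin redistribution.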 The class given is functional.
The next assay deals with Genome polyprotein (dengue virus type 2, UniProt P29990). Briefly: flavivirus cap methylation enzyme inhibition – biochemical, confirmation dose response, primary screen (AID 588689). The class given is functional.
Chain of Genome polyprotein (P29990 2492-3391 limits assumed): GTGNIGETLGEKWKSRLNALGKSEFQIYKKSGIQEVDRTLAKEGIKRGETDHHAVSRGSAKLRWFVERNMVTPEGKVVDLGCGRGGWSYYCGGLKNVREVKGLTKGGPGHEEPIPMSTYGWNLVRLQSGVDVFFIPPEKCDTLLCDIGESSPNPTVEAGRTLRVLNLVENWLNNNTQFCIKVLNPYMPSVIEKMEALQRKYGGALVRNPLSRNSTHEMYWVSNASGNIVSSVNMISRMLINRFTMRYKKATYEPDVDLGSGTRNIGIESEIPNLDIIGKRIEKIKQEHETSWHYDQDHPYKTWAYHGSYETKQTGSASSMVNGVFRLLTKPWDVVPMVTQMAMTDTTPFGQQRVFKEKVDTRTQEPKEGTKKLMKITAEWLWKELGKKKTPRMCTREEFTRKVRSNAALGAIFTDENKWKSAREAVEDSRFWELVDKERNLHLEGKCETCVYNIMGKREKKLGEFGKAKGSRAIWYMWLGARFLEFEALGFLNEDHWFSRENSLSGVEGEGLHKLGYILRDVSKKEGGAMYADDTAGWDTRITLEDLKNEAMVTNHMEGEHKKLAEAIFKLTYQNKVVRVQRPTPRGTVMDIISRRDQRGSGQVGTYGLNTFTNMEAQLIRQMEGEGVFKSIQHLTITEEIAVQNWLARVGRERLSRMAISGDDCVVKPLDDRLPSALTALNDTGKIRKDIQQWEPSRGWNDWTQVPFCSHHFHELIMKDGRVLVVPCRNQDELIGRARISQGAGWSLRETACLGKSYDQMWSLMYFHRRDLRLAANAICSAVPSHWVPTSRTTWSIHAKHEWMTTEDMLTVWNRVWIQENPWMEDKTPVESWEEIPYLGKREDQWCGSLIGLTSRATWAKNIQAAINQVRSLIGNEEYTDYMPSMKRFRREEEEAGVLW
The target of the next assay is Trypsin (Sus scrofa, UniProt P00761). As to the kind of experiment: trypsin protease activity blockade – biochemical, quenched peptide fluorescence, cherry-pick, selectivity assay for Rce1 protease inhibitor project, dose response (AID 488789).
In a further assay the target is T1, CAAX prenyl protease 2 (Saccharomyces cerevisiae S288c, UniProt Q03530).
T1 sequence (Q03530 whole entry): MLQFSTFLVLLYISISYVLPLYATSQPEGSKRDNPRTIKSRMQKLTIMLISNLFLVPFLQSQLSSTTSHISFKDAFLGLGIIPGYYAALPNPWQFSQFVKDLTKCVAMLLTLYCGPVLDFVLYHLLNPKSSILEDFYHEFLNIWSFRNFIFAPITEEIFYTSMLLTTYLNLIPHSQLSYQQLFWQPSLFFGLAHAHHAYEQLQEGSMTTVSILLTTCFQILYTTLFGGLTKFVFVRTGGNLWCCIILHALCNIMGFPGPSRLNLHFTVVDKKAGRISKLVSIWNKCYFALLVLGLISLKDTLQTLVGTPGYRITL
It is filed as biochemical.

Assay [2] concerns the target Cyclin-dependent kinase 5/CDK5 activator 1 (Homo sapiens, UniProt Q00535). Briefly: blockade of human CDK5 activity – biochemical, cherry-picked samples, set 2, dose response (AID 504545).
In assay [3] the target is T2, Voltage-gated N-type calcium channel alpha-1B subunit/Amyloid beta A4 precursor protein-binding family A member 1 (Homo sapiens, UniProt Q00975+Q02410). As to the kind of experiment: disruptors of Mint-PDZ/N-type channel peptide interaction – biochemical, HTRF, SAR follow-up (AID 2489). The class given is functional. Background: In TR-FRET formats the signal depends on donor and acceptor labels being close together.
T2 sequence (Q00975 whole entry): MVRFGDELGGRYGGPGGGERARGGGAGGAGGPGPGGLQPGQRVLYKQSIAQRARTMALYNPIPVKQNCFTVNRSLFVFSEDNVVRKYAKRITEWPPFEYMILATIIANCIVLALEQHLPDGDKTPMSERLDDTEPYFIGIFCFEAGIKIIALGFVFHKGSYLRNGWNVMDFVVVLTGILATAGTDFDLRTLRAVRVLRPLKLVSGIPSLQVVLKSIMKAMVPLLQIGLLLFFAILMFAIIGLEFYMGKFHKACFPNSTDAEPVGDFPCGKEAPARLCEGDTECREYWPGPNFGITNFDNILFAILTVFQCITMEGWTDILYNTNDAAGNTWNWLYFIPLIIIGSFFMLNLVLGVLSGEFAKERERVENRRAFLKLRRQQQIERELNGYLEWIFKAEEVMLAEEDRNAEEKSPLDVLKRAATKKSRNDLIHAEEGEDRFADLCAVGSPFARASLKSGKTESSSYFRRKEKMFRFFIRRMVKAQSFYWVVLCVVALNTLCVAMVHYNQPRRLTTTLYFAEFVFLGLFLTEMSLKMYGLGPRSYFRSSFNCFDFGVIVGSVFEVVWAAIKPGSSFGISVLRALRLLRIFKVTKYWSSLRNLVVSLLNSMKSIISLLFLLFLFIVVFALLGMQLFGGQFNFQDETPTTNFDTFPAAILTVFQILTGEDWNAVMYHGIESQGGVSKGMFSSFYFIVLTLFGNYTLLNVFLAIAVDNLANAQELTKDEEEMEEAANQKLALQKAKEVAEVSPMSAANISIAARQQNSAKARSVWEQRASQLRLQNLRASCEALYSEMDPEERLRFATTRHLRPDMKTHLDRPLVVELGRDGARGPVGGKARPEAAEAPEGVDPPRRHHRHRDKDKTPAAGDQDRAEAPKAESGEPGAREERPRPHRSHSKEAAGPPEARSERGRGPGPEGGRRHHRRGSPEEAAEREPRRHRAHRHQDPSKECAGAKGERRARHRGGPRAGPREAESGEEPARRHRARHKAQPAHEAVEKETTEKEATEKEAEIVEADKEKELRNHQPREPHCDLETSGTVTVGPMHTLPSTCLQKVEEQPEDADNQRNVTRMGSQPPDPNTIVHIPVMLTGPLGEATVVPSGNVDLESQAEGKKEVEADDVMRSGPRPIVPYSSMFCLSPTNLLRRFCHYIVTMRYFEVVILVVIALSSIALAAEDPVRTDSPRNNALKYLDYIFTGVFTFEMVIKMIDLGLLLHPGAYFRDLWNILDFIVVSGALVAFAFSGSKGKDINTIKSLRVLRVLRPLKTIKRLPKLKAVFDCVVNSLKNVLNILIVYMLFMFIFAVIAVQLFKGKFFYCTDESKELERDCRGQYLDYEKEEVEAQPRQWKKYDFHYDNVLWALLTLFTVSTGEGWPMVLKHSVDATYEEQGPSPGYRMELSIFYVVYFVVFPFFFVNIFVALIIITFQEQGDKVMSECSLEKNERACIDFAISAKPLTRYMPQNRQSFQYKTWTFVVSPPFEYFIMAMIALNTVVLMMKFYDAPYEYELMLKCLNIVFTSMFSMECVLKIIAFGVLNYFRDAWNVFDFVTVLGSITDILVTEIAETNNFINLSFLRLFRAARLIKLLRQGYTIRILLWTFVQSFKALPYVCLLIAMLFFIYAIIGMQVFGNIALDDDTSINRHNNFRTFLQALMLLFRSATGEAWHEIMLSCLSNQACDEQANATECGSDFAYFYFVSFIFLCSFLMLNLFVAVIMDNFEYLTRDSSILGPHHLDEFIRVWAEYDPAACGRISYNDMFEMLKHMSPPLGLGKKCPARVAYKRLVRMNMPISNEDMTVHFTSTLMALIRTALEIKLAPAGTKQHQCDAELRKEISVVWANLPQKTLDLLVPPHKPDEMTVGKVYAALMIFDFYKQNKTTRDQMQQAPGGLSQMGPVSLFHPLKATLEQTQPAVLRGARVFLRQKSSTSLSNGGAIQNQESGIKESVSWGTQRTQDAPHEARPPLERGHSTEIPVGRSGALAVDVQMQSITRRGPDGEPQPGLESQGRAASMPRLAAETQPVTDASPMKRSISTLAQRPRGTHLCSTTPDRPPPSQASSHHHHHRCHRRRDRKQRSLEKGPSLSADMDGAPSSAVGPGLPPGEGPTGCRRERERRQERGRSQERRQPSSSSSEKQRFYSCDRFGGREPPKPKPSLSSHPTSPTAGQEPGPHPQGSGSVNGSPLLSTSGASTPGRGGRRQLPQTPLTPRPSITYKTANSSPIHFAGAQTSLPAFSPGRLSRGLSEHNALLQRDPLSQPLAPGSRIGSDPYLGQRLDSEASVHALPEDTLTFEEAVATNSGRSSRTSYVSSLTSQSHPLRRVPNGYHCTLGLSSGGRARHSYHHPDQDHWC
T2 sequence (Q02410 whole entry): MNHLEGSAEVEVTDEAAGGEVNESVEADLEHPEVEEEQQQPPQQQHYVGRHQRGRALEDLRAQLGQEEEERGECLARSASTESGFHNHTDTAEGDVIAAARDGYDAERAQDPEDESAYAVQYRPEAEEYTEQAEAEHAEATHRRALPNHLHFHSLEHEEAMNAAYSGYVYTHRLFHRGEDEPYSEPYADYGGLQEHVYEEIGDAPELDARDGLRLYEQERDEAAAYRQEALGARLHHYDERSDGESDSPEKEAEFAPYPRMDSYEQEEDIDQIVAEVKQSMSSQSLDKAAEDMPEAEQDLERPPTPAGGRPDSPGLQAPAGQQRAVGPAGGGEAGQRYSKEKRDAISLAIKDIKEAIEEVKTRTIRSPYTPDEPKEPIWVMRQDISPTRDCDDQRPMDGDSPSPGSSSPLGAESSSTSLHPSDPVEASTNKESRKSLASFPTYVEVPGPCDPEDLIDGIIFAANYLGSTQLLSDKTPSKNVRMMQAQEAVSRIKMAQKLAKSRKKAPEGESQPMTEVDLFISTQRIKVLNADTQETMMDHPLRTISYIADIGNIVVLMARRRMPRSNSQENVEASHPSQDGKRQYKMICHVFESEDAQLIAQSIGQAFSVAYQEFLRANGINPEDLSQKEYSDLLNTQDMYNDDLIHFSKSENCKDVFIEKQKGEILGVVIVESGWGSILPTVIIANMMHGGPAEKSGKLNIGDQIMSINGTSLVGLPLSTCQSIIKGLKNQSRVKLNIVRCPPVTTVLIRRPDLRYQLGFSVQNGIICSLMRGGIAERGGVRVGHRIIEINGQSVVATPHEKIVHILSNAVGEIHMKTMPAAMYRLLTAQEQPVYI

Assay [4] deals with T2, Voltage-gated N-type calcium channel alpha-1B subunit/Amyloid beta A4 precursor protein-binding family A member 1. The class given is protein assay.
For assay [5] the target is unchanged. As to the kind of experiment: disruptors of Mint-PDZ/N-type channel peptide interaction – biochemical, HTRF, set 2, SAR follow-up (AID 434980). The class given is functional.
Assay [6] has the same target. The class given is protein assay. The source holds these as a separate data set.
Assay [7] has as its target T3, Tyrosine-protein phosphatase non-receptor type 7 (Homo sapiens, UniProt P35236).
T3 sequence (P35236 whole entry): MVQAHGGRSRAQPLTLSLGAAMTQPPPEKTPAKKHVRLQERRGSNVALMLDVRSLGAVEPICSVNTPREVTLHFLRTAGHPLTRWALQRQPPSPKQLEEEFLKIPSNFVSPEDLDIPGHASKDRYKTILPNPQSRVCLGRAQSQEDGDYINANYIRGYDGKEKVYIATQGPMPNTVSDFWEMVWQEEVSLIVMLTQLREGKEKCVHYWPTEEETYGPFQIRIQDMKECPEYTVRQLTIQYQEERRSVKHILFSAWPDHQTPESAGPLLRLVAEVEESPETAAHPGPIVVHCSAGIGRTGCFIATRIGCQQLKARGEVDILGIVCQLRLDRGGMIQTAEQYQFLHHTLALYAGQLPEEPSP
Briefly: HePTP tyrosine phosphatase activity blockers – biochemical, absorbance, leukemia target, primary screen (AID 521). It is filed as functional.

In a further assay the target is T4, Bcl-2-like protein 10 (Homo sapiens, UniProt Q9HD36).
T4 sequence (Q9HD36 whole entry): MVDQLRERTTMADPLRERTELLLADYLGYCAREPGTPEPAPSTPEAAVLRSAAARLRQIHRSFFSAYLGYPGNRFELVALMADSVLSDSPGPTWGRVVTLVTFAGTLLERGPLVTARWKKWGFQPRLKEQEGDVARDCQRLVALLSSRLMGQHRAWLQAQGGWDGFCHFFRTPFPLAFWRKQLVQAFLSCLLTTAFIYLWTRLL
Briefly: Bcl-B/TR3 peptide binding disruption – biochemical, fluorescence polarization, FITC-TR3 peptide, selectivity assay for Bfl-1 inhibitor project, primary screen (AID 748). On the technique in general: Fluorescence polarisation rises when a labelled molecule tumbles more slowly, as on binding a larger partner.

The target in a further assay is Bcl-2-like protein 1 (Homo sapiens, UniProt Q07817). Briefly: blockers of BCLXL peptide binding – biochemical, fluorescence polarization, 1536-well, selectivity assay for MCL1 inhibitor project, dose response (AID 2218).
Chain of Bcl-2-like protein 1 (Q07817 whole entry): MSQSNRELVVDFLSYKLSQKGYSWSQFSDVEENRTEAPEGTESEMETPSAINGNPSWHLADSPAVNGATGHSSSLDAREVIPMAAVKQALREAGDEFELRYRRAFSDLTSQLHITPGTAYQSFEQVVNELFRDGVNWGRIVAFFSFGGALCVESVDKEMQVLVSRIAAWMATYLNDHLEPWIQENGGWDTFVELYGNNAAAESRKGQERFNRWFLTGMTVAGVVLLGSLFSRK
Assay [8] deals with Induced myeloid leukemia cell differentiation protein Mcl-1 (Homo sapiens, UniProt Q07820). Briefly: blockers of MCL1 binding to BIM peptide – biochemical, fluorescence polarization, BIM-BH3 peptide, 1536-well, dose response (AID 2217).
Chain of Induced myeloid leukemia cell differentiation protein Mcl-1 (Q07820 whole entry): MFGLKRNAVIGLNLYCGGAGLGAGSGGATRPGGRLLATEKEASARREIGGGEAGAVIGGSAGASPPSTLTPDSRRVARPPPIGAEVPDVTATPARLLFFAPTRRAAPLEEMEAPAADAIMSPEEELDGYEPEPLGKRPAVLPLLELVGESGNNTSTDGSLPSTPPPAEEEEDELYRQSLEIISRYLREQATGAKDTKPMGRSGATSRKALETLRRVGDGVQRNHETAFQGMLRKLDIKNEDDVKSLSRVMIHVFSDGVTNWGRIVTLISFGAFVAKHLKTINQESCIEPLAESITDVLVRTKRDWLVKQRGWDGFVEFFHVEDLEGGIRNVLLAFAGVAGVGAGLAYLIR
The next assay deals with X-box-binding protein 1 (Homo sapiens, UniProt P17861). It is filed as functional, Cricetulus griseus.
Assay [9] in a line: bead-based luminescence quenchers, dual-tagged ARNT – biochemical, AlphaScreen, cherry-pick, artefact control for ARNT-TACC3 interaction inhibitor project, dose response (AID 651705).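 Also: AlphaScreen bead proximity signal that flags compounds interfering with the detection technology; potency reflects signal decrease which marks the compound as an assay artifact.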 It is filed as functional.
Assay [10] has as its target T5, Tyrosyl-DNA phosphodiesterase 2 (Homo sapiens, UniProt O95551).
T5 sequence (O95551 whole entry): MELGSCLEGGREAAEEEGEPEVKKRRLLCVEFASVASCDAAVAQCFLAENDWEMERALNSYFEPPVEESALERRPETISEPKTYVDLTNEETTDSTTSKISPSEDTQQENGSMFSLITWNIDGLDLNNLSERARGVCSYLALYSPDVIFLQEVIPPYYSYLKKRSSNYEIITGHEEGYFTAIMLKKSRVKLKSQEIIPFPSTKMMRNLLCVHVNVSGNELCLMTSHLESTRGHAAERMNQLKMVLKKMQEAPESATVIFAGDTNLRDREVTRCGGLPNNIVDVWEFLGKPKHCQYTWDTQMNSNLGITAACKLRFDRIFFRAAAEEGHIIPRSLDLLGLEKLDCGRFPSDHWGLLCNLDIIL
Briefly: potency against TDP2 phosphodiesterase activity – biochemical, epi absorbance, IC50, dose response (AID 743297).

Assay [11] concerns the target T6, Histone-lysine N-methyltransferase NSD2 (Homo sapiens, UniProt O96028).
T6 sequence (O96028 whole entry): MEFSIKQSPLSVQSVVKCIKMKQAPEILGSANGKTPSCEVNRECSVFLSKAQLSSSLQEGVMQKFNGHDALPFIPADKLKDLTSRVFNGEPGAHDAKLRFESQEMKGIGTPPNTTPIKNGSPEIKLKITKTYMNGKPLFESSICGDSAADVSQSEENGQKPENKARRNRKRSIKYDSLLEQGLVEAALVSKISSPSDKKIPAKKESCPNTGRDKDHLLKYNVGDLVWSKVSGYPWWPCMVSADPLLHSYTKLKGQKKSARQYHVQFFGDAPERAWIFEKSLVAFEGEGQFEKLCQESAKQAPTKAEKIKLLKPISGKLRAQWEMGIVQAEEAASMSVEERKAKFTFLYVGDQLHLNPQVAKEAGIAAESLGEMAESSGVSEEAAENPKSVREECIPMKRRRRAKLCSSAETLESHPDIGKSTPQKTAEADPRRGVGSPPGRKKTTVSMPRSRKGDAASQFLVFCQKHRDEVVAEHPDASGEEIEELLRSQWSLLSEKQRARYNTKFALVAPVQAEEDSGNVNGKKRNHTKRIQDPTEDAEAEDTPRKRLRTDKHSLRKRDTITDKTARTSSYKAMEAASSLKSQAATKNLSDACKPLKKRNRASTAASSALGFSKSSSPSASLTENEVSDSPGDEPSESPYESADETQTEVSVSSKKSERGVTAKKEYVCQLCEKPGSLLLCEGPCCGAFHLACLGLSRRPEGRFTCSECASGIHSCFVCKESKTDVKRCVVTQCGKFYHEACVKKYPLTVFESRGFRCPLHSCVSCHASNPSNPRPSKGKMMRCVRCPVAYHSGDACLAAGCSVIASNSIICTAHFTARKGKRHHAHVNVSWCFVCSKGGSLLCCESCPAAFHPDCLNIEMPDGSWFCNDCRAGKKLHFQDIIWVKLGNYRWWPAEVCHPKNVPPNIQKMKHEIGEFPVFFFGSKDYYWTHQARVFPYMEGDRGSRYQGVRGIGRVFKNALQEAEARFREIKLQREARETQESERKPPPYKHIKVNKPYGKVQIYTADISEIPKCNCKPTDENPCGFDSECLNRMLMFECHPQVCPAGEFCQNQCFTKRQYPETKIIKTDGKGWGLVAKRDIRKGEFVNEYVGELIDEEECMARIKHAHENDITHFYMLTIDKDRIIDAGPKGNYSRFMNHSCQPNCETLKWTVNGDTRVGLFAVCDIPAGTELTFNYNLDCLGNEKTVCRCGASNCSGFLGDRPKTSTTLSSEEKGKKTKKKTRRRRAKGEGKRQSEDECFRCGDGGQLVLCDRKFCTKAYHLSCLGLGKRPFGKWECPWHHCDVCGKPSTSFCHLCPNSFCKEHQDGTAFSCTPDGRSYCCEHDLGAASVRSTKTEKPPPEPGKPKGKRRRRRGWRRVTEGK
The class given is biochemical.

Another assay concerns the target T7, Hexokinase HKDC1 (Homo sapiens, UniProt Q2TB90).
T7 sequence (Q2TB90 whole entry): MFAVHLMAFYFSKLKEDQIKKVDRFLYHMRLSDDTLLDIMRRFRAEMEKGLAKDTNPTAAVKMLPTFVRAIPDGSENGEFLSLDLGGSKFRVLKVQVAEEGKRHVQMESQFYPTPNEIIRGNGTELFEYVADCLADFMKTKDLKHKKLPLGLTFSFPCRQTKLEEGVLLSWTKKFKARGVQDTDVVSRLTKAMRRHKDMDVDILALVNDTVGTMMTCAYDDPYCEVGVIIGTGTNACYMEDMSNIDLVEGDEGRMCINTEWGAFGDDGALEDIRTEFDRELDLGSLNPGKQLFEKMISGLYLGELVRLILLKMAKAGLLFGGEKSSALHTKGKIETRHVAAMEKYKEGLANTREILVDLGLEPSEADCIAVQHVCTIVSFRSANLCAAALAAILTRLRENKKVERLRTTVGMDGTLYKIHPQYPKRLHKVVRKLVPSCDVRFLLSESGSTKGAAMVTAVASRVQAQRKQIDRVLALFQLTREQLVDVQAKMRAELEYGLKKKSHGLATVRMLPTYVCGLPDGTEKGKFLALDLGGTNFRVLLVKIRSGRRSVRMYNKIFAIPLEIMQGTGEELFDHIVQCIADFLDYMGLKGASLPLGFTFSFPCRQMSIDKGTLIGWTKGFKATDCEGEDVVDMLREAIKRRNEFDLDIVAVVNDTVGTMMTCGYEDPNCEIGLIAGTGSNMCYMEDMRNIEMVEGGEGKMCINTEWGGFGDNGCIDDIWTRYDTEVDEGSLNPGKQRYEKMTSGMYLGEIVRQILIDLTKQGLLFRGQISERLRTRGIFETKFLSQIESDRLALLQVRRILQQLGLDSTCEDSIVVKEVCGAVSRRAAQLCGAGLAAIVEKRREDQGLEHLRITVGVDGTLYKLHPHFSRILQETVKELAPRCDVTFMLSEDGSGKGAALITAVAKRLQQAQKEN
Briefly: inhibition of HKDC1 glucose phosphorylation – biochemical, W721R variant, dose response (AID 504729). The class given is functional.

In assay [12] the target is Glucose-6-phosphate 1-dehydrogenase (Homo sapiens, UniProt P11413). As to the kind of experiment: inhibition of Homo sapiens G6PD, dose series – biochemical, fluorescence, selectivity assay for P. falciparum G6PD inhibitor project, dose response (AID 504792). It is filed as functional.

Each structure is given as a SMILES string. Active and inactive are the calls of the source.
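For Absolute IC50 (XBP1) in this document: confirmatory dose-response counter-screen serving a CHOP assay.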

Chain of G-protein coupled receptor 35 (Q9HC97 whole entry): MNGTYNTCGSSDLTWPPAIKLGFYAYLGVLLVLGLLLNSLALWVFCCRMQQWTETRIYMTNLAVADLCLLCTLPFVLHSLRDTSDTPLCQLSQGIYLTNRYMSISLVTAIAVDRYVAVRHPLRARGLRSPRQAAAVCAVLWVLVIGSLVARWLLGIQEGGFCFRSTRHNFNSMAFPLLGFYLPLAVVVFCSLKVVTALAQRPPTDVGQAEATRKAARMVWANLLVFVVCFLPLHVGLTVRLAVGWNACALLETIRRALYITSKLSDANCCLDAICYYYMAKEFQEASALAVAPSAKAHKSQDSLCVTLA

One may read the IC50 as the midpoint of a concentration-inhibition curve. In the case of `O=C(O)COc1ccc(/C=C/C(=O)c2ccc(C3CCCCC3)cc2)cc1`, the half-maximal inhibitory concentration (IC50) is 2.16 µM (active) in [1] and 47.7 µM (active) on Genome polyprotein.

For orientation: AC50 means the concentration giving half of the maximal activity seen. Turning to `O=C(COc1ccc2ccc(=O)oc2c1)NCCc1c[nH]c2ccc(F)cc12`, the half-maximal activity concentration (AC50) at Trypsin was 9.56 µM (active); on CAAX prenyl protease 2 it was 9.47 µM (active).

`COc1ccc(C(=O)c2sc(Nc3ccccc3)nc2N)cc1`: in [2], the concentration at half-maximal activity (AC50) is 16.8 µM (active).

Consider `CC(=O)Oc1ccc(N2C(=O)C3C(C2=O)C2(C)C=CC3(C)O2)cc1` (centres undefined), for which the IC50 was 7.82 µM (active) in [3], 1.93 µM (active) in assay [4], 6.39 µM (active) in [5] and 5.05 µM (active) in [6].

With `CCn1c(SC(C)C(=O)O)nc2sc3c(c2c1=O)CCC3` (centres undefined), the IC50 was 1.69 µM (active) in [7], 7.65 µM (active) on Bcl-2-like protein 10, 90.1 µM (not active) on Bcl-2-like protein 1 and 16.8 µM (not active) in [8].

As to `O=C(Nc1ccccc1C(F)(F)F)c1cc(-c2ccc(O)cc2)on1`, on X-box-binding protein 1, the “Absolute IC50 (XBP1)” value amounted to 10 µM.

As to `CC(N=C1C=C(O)c2cccnc2C1=O)C(O)c1ccccc1` (centres undefined), the AC50 was 111 µM (active) in [9] and 0.754 µM (active) in assay [11]. In addition, the IC50 in assay [10] is 5.45 µM (active); at Hexokinase HKDC1, 18.5 µM (active); in assay [12] it was 33.2 µM (inactive).
